# According to ChEMBL document CHEMBL1201862, “PubChem BioAssay data set” (2004):
# Activity calls are given as the source filed them.
# Key:
# [1] = toxicity toward HepG2 liver cells – cell-based, plate reader, cherry-pick, antagonist series, cytotoxicity control, dose response (AID 743416); type: functional
# [2] = blockers of bursicon-stimulated LGR2 cAMP reporter – cell-based, HEK293, CRE-luciferase reporter, cherry pick, set 2, dose response (AID 743343); type: functional;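 note: transfected cells were stimulated with diluted bursicon conditioned medium after compound addition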
# [3] = A549 cell cytotoxicity, dose response, cytotoxicity control, plate reader, cherry-pick, antagonist series (AID 743412); type: functional, cell-based
# [4] = blockade of melanocortin 4 receptor signaling – cell-based, plate reader, cherry pick, counter-screen for LGR2 antagonist project, dose response (AID 743444); type: functional;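 note: transfected HEK 293 cells stimulated with alpha-MSH peptide; potency of inhibitors of the alpha-MSH evoked signal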
# [5] = target: Ras and Rab interactor 1/Tyrosine-protein kinase ABL1 (Homo sapiens, UniProt P00519+Q13671); type: functional;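 note: biochemical TR-FRET dose-response test measuring inhibition of binding between Rin1 and Abl proteins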
# Chain of Ras and Rab interactor 1/Tyrosine-protein kinase ABL1 (P00519 whole entry): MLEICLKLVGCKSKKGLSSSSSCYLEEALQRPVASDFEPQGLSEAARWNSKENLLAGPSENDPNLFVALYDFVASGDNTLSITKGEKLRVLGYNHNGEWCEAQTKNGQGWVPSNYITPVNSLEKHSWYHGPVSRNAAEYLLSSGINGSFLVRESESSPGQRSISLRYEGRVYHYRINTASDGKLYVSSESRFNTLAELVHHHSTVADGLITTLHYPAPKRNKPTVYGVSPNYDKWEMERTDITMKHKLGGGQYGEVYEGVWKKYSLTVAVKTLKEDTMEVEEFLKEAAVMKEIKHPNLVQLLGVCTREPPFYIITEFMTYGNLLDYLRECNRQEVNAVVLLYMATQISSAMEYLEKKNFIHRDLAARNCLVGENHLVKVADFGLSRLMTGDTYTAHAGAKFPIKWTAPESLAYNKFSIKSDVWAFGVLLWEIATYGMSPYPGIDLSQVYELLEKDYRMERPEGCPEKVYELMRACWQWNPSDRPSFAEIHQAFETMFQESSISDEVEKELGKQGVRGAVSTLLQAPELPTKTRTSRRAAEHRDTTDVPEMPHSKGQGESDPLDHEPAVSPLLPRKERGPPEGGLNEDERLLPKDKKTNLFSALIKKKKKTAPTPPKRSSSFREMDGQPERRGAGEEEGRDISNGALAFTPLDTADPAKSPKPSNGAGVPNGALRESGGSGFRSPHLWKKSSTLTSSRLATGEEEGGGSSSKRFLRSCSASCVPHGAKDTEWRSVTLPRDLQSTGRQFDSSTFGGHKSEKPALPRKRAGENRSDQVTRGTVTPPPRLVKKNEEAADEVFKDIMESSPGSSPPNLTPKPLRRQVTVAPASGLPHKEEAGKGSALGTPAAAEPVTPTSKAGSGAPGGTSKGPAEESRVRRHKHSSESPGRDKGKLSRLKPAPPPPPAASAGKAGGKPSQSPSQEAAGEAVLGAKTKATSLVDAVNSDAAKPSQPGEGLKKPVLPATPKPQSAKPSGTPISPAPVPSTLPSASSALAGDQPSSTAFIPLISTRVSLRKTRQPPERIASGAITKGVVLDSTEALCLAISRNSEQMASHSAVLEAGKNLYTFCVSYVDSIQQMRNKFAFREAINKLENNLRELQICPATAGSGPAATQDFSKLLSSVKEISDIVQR
# Chain of Ras and Rab interactor 1/Tyrosine-protein kinase ABL1 (Q13671 whole entry): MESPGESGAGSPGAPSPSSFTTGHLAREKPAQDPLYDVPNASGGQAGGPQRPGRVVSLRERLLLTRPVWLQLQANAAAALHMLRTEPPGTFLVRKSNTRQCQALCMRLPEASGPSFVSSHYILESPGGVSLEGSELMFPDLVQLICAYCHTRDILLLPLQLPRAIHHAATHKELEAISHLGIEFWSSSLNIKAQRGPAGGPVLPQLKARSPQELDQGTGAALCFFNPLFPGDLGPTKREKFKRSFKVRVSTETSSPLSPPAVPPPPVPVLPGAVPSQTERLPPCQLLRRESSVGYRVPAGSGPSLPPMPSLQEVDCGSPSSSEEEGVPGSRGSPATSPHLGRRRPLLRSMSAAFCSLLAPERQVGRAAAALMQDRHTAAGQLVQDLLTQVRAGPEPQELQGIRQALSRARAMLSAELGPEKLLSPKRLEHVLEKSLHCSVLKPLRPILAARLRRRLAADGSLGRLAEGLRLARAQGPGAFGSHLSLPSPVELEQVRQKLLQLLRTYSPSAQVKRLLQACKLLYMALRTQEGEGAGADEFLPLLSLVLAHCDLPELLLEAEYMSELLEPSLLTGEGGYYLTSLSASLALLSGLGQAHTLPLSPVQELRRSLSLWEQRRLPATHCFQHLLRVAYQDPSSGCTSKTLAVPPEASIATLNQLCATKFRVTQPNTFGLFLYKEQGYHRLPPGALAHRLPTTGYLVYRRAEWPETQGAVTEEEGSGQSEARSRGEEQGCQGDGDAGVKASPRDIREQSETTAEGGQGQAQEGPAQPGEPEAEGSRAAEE
# [6] = viability loss in HEK293 cells – cell-based, plate reader, cherry-picked samples, cytotoxicity control, dose response (AID 743446); type: functional
# [7] = target: T1, Replicative DNA helicase DnaB (Mycobacterium tuberculosis, UniProt P9WMR3); assay: DnaB intein splicing inhibitors, dose response, biochemical, cell-free fluorescence (AID 449749); type: functional
# T1 sequence (P9WMR3 whole entry): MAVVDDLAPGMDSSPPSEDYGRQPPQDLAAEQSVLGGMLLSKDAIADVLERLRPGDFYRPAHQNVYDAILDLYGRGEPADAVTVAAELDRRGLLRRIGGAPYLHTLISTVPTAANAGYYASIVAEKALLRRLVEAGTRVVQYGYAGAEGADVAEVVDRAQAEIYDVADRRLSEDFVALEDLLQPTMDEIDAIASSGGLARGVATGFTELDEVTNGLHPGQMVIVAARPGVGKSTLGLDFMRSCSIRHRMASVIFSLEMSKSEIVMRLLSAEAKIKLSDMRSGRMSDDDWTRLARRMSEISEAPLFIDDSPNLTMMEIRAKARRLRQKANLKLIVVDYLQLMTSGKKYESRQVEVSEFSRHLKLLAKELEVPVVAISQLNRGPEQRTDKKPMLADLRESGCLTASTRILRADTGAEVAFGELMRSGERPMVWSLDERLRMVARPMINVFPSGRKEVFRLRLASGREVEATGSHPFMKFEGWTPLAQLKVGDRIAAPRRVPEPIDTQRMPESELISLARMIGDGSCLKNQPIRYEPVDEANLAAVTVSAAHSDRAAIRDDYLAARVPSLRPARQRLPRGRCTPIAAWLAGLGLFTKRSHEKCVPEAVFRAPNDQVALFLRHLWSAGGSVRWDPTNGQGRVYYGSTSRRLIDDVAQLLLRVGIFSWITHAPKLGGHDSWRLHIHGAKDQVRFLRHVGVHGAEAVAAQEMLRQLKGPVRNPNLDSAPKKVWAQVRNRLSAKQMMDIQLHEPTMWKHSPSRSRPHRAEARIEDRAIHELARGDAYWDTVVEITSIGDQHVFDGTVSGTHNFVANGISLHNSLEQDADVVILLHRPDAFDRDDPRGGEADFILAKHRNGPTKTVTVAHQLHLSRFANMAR
# [8] = target: Tyrosyl-DNA phosphodiesterase 2 (Homo sapiens, UniProt O95551); assay: potency against TDP2 phosphodiesterase activity – biochemical, epi absorbance, IC50, dose response (AID 743297)
# Chain of Tyrosyl-DNA phosphodiesterase 2 (O95551 whole entry): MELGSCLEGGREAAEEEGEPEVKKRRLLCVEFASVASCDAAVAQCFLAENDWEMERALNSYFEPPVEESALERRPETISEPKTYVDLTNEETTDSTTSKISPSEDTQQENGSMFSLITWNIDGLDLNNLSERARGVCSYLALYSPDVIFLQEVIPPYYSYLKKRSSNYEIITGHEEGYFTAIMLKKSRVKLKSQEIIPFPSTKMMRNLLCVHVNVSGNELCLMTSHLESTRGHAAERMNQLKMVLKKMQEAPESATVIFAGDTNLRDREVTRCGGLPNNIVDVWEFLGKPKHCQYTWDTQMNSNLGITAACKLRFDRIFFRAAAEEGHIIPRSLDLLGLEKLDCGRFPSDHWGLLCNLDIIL
# [9] = target: T2, Sentrin-specific protease 8 (Homo sapiens, UniProt Q96LD8); type: functional
# T2 sequence (Q96LD8 whole entry): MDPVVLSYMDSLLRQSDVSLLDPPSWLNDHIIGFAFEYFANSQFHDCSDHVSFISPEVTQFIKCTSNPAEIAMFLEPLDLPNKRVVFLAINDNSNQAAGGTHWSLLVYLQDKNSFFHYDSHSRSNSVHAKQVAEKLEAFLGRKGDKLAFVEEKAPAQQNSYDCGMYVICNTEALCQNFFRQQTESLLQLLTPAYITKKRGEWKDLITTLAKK
# [10] = target: T2, Sentrin-specific protease 8; type: functional; remark: listed apart in the source
# Protein RecA = target: T3, Protein RecA (Mycobacterium tuberculosis, UniProt P9WHJ3); assay: Fluorescence Cell-Free Homogeneous Dose Retest to Identify Inhibitors of RecA-Intein Splicing Activity. [Related pubchem assays (depositor defined):AID2097, AID2223, AID489010, AID492950]; type: functional
# T3 sequence (P9WHJ3 whole entry): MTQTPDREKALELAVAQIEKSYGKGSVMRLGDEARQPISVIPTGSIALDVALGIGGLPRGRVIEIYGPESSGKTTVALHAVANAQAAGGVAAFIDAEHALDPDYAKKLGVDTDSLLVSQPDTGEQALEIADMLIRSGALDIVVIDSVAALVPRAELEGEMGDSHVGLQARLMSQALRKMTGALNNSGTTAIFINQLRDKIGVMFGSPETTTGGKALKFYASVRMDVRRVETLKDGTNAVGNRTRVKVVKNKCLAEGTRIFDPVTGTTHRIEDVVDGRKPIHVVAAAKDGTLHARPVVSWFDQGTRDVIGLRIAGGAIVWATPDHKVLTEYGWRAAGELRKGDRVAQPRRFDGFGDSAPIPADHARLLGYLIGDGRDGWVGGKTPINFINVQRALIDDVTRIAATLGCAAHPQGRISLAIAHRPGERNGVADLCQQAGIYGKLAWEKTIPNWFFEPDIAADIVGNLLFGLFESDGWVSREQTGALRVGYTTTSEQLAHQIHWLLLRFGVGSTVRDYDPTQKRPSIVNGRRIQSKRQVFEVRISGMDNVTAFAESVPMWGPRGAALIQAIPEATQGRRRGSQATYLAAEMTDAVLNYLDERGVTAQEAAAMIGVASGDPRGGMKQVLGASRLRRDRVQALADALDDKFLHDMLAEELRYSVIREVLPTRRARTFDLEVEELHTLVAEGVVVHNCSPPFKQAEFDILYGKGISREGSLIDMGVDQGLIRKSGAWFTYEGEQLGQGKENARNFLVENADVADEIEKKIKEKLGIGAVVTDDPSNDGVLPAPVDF
# [11] = target: Endoplasmic reticulum aminopeptidase 1 (Homo sapiens, UniProt Q9NZ08); assay: inhibition of human ERAP1 enzyme activity – biochemical, cherry-pick, set 2, plate reader, dose response (AID 743314)
# Chain of Endoplasmic reticulum aminopeptidase 1 (Q9NZ08 whole entry): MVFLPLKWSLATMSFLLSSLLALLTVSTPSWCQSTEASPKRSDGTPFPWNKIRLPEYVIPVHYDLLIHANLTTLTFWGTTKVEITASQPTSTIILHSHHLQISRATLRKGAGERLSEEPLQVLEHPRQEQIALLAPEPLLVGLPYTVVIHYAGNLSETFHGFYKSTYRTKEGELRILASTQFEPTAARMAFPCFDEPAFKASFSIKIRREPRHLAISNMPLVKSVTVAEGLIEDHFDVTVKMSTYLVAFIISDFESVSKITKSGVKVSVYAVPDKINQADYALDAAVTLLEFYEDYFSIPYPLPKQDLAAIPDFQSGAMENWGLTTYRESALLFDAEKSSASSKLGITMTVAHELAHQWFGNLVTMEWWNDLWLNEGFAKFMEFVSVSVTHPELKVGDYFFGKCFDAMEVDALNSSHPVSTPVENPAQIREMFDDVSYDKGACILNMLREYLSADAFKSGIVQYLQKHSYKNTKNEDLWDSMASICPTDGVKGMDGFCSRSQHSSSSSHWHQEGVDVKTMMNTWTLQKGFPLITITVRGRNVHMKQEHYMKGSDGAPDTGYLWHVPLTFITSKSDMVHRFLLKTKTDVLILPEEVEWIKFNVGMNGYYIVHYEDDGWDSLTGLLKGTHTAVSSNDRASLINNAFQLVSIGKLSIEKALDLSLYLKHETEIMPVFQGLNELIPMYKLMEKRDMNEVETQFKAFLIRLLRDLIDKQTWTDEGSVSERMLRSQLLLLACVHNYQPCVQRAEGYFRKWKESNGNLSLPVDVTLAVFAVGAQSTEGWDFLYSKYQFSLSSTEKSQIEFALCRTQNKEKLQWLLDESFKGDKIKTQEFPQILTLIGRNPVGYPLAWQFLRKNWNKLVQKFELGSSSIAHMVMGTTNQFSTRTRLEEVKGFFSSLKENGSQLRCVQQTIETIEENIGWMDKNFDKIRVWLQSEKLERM
# [12] = target: T4, DNA repair and recombination protein RAD54-like (Homo sapiens, UniProt Q92698); assay: RAD54 Holliday junction migration blockers – biochemical, fluorescence, cherry-picked samples, dose series, confirmation (AID 651657); type: functional
# T4 sequence (Q92698 whole entry): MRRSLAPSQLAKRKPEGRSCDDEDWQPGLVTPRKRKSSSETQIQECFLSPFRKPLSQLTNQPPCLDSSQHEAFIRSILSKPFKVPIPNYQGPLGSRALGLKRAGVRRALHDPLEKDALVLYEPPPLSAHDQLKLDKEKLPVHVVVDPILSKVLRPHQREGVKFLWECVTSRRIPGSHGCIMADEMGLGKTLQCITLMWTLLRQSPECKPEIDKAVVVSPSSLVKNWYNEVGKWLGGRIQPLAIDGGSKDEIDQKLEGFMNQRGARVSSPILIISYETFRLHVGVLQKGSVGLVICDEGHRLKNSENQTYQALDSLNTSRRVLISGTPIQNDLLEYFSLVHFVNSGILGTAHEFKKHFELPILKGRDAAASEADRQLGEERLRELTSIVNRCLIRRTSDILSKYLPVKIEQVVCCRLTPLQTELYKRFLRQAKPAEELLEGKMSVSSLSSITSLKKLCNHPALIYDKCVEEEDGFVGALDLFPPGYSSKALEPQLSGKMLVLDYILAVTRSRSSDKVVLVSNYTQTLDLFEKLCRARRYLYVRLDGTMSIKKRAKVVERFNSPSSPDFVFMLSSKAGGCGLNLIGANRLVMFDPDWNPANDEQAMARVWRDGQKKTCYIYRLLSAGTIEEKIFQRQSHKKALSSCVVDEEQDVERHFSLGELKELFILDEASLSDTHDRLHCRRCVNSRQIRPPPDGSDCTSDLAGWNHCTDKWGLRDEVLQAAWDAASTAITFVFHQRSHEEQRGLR
# Major prion protein = Major prion protein (Homo sapiens, UniProt P04156); type: functional, cell-based
# [13] = viability loss in HepG2 hepatoma cells – cell-based, ATP luminescence, cherry-pick, activator set 2, cytotoxicity control, dose response (AID 1053143); type: functional
smiles,measurement,setting,value
CCOC(=O)c1ccc(NC(=O)COc2ccccc2CNCCc2ccccc2)cc1,AC50,[1],13.9 µM (active)
same,AC50,[2],17.4 µM (active)
same,AC50,[3],10 µM (active)
same,AC50,[4],27.7 µM (active)
same,IC50,[5],25.9 µM (inactive)
same,AC50,[6],15.4 µM (active)
COC(=O)c1ccccc1-c1ccc(C(c2c(C)n[nH]c2O)c2c(C)n[nH]c2O)o1,AC50,[7],279 nM (active)
same,IC50,[8],51.2 µM (inactive)
same,IC50,[9],18.6 µM (active)
same,IC50,[10],8.91 µM (active)
same,EC50,Protein RecA,214 nM (active)
CN1CCCC1CCNc1ccc2c(=O)c3ccccc3oc2c1 (stereo unspecified),AC50,[11],4.52 µM (active)
same,AC50,[12],21.1 µM (active)
CCOC(=O)C(CC)Sc1cc(C)nc2ccc(OC)cc12 (stereo unspecified),IC50,cells,> 138 µM (inactive)
same,IC50,Major prion protein,5.29 µM (active)
Cc1occc1-c1nnc(SC(C)C(=O)Nc2ccccc2F)o1 (stereo unspecified),AC50,[13],19.3 µM (active)
